In patent US7592372B2, “Liquid drug preparations” (Hisamitsu Pharmaceutical Co., Inc., priority 2001, dated 2009):

Experiments:
Format in all cases: physicochemical
[1] = Color change by naked eye observation after preservation at 70° C. for seven days; further: key: −: There was no color change in the liquid preparation; ±: There was slight color change in the liquid preparation; +: There was color change in the liquid preparation; ++: There was remarkable color change in the liquid preparation
Procedure: (§1) Aqueous solutions containing 8 g of fudostein were adjusted to pH 2-7 using an appropriate amount of phosphoric acid or sodium hydroxide as shown in Table 1. Purified water was added to make the total amount of each solution 100 ml, thereby obtaining liquid fudostein preparations with different pHs. The liquid preparations were preserved at 70° C. for seven days to examine the residual ratio of fudostein in the solutions, color change, and sedimentation. The residual ratio of fudostein was calculated from the amount of fudostein determined by quantitative analysis using HPLC. The color change and sedimentation were evaluated by naked eye observation and rated according to the following standard.
Evaluation standard for color change:
(§2) Purified water was added to make the total amount of each solution 100 ml, thereby obtaining liquid fudostein preparations. […]
(§3) Aqueous solutions containing 8 g of fudostein and D-sorbitol in the amounts shown in Table 5 were adjusted to pH 3.5 by adding phosphoric acid. Purified water was added to make the total amount of each solution 100 ml, thereby obtaining liquid fudostein preparations.

[2] = Residual ratio of fudostein (HPLC) after preservation at 70° C. for seven days
Procedure: as §1, §2, §3

[3] = Sedimentation by naked eye observation after preservation at 70° C. for seven days
Procedure: as §1, with “standard. […] (Results) Aqueous solutions containing 8 g of fudostein and D-sorbitol in the amounts shown in Table 5 were adjusted to pH 3.5 by adding phosphoric acid. Purified water was added to make the total amount of each solution 100 ml, thereby obtaining liquid fudostein preparations.” for “standard.”

[4] = Overall stability of liquid fudostein preparations after preservation at 70° C. for seven days; conditions: 8 g fudostein/100 ml
Procedure: as §1, with “standard. Aqueous solutions containing 8 g of fudostein and D-sorbitol in the amounts shown in Table 5 were adjusted to pH 3.5 by adding phosphoric acid. Purified water was added to make the total amount of each solution 100 ml, thereby obtaining liquid fudostein preparations.” for “standard.”

[5] = 8 g fudostein/100 ml aqueous solution, pH 2.0, 70° C. for seven days
[6] = 8 g fudostein/100 ml aqueous solution, pH 2.5, 70° C. for seven days
[7] = 8 g fudostein/100 ml aqueous solution, pH 3.0, 70° C. for seven days
[8] = 8 g fudostein/100 ml aqueous solution, pH 3.5, 70° C. for seven days
[9] = 8 g fudostein/100 ml aqueous solution, pH 4.0, 70° C. for seven days
[10] = 8 g fudostein/100 ml aqueous solution, pH 5.0, 70° C. for seven days
[11] = 8 g fudostein/100 ml aqueous solution, pH 6.0, 70° C. for seven days
[12] = 8 g fudostein/100 ml aqueous solution, pH 7.0, 70° C. for seven days
[13] = 8 g fudostein/100 ml, D-sorbitol 0%, pH 3.5, 70° C. for seven days
[14] = 8 g fudostein/100 ml, D-sorbitol 10%, pH 3.5, 70° C. for seven days
[15] = 8 g fudostein/100 ml, D-sorbitol 20%, pH 3.5, 70° C. for seven days
[16] = 8 g fudostein/100 ml, D-sorbitol 30%, pH 3.5, 70° C. for seven days
[17] = 8 g fudostein/100 ml, D-sorbitol 40%, pH 3.5, 70° C. for seven days
[18] = 8 g fudostein/100 ml, D-sorbitol 50%, pH 3.5, 70° C. for seven days

Color change [1, 5]: − | Color change [1, 6]: − | Color change [1, 7]: − | Color change [1, 8]: − | Color change [1, 9]: − | Color change [1, 10]: ± | Color change [1, 11]: + | Color change [1, 12]: ++ | Color change [1, 13]: − | Color change [1, 14]: − | Color change [1, 15]: − | Color change [1, 16]: − | Color change [1, 17]: ± | Color change [1, 18]: + | Analytical value Residual ratio (%) [2, 5]: 99.9% | Analytical value Residual ratio (%) [2, 6]: 100.0% | Analytical value Residual ratio (%) [2, 7]: 100.7% | Analytical value Residual ratio (%) [2, 8]: 100.3% | Analytical value Residual ratio (%) [2, 9]: 101.1% | Analytical value Residual ratio (%) [2, 10]: 100.1% | Analytical value Residual ratio (%) [2, 11]: 100.4% | Analytical value Residual ratio (%) [2, 12]: 99.4% | Analytical value Residual ratio (%) ([2]; 8 g fudostein/100 ml, D-sorbitol 0%, pH 3.5 (phosphoric acid), 70° C. for seven days): 99.6% | Analytical value Residual ratio (%) ([2]; 8 g fudostein/100 ml, D-sorbitol 10%, pH 3.5 (phosphoric acid), 70° C. for seven days): 99.4% | Analytical value Residual ratio (%) ([2]; 8 g fudostein/100 ml, D-sorbitol 20%, pH 3.5 (phosphoric acid), 70° C. for seven days): 99.0% | Analytical value Residual ratio (%) ([2]; 8 g fudostein/100 ml, D-sorbitol 30%, pH 3.5 (phosphoric acid), 70° C. for seven days): 99.3% | Analytical value Residual ratio (%) ([2]; 8 g fudostein/100 ml, D-sorbitol 40%, pH 3.5 (phosphoric acid), 70° C. for seven days): 99.9% | Analytical value Residual ratio (%) ([2]; 8 g fudostein/100 ml, D-sorbitol 50%, pH 3.5 (phosphoric acid), 70° C. for seven days): 100.4% | Sedimentation [3, 5]: ± (Slight sedimentation was observed.) | Sedimentation [3, 6]: ± (Slight sedimentation was observed.) | Sedimentation [3, 7]: − | Sedimentation [3, 8]: − | Sedimentation [3, 9]: − | Sedimentation [3, 10]: − | Sedimentation [3, 11]: − | Sedimentation [3, 12]: − | Sedimentation [3, 13]: − | Sedimentation [3, 14]: − | Sedimentation [3, 15]: − | Sedimentation [3, 16]: − | Sedimentation [3, 17]: + (Sedimentation was observed.) | Sedimentation [3, 18]: + (Sedimentation was observed.) | pH at which the liquid fudostein preparation remains stable ([4]; 70° C. for seven days): ≤ 5.0 | sugar alcohol concentration at which liquid fudostein preparations are stable ([4]; D-sorbitol, pH 3.5, 70° C. for seven days): ≤ 40%
SMILES: N[C@@H](CSCCCO)C(=O)O [fudostein, S-(3-hydroxypropyl)-L-cysteine]
